From article PMC12059368 (Biomolecules & Therapeutics, 2024)
Like-named read-outs stand apart in the source and are kept apart here.

How the values were obtained:
[1] = ref Popiolek et al., 2021; cited from earlier work
[2] = system: CYP3A1/2; experiment: Immunoblot of hepatic microsomes, CYP3A1/2; assay type: in vivo, rat; conditions: RVT rats
[3] = system: APAP-induced ALI rats; experiment: Biochemical profile and tissue microscopy in APAP-induced ALI rats; assay type: in vivo, Sprague-Dawley rats
[4] = ref Bannwarth et al., 2013, Dowty et al., 2014; cited from earlier work
[5] = iv 10 mg/kg
[6] = In vitro metabolism of tofacitinib; assay type: in vitro ADME, rat; conditions: hepatic microsomes
[7] = in vivo; conditions: Sprague-Dawley, rat, plasma, iv, 10 mg/kg, CON rats (control)
[8] = Rat plasma protein binding of tofacitinib; assay type: in vitro ADME; conditions: for fraction unbound at 5 µg/mL: Sprague-Dawley, rat, plasma, Plasma protein binding
[9] = intestinal microsomes, CON, RVT, ALI
[10] = RVT 50 mg/kg ip, ALI-RVT vs ALI rats, plasma
[11] = oral 20 mg/kg, ALI rats (APAP 400 mg/kg ip)
[12] = oral 20 mg/kg, ALI-RVT rats (RVT 50 mg/kg ip 1.5 h before APAP)
[13] = oral 20 mg/kg, ALI-RVT vs ALI rats
[14] = oral 20 mg/kg, CON rats (control)
[15] = oral 20 mg/kg, RVT rats (RVT 50 mg/kg ip)
[16] = ALI-RVT rats (RVT 50 mg/kg ip 1.5 h before APAP)

## CC(=O)Nc1ccc(O)cc1 [APAP, Acetaminophen]
[1]
  Safe dose: up to 2,000 mg per day

## Oc1ccc(/C=C/c2cc(O)cc(O)c2)cc1 [RVT, Resveratrol]
[2]
  CYP3A expression following RVT administration: slightly decreased
[3]; RVT 50 mg/kg ip, ALI-RVT rats
  Liver and kidney histology: alleviated tissue damage
[3]; [10]
  Decrease in GOT: 35.1%
  Increase in total protein: 4.50%
[3]; RVT administration in ALI rats
  Glutamate oxaloacetate transaminase levels: normalized

## C[C@@H]1CCN(C(=O)CC#N)C[C@@H]1N(C)c1ncnc2[nH]ccc12 [tofacitinib, Tofacitinib]
CON, RVT, ALI, ALI-RVT rats
  F values, comparison across the four groups: similar
[11]
  Ae0-24 h (drug excreted unchanged in urine for 24 h): 3.04 ± 1.74 % of dose
  GI24 h (drug remaining in the gastrointestinal tract at 24 h): 0.743 ± 0.917 % of dose
Oral 20 mg/kg, ALI vs CON rats
  Decrease in CLR: 76.4%
Oral 20 mg/kg, ALI vs CON rats, 20 mg/kg
  Increase in AUC: 181%
[12]
  Ae0-24 h (drug excreted unchanged in urine for 24 h): 6.41 ± 1.86 % of dose
  GI24 h (drug remaining in the gastrointestinal tract at 24 h): 0.467 ± 0.243 % of dose
[13]
  Decrease in AUC: 41.4%
  Increase in CLR: 211%
[14]
  Ae0-24 h (drug excreted unchanged in urine for 24 h): 4.72 ± 2.03 % of dose
  GI24 h (drug remaining in the gastrointestinal tract at 24 h): 0.791 ± 1.06 % of dose
[15]
  Ae0-24 h (drug excreted unchanged in urine for 24 h): 3.96 ± 2.11 % of dose
  GI24 h (drug remaining in the gastrointestinal tract at 24 h): 0.295 ± 0.0618 % of dose
oral, both CON and ALI rats
  GI24 h values: less than 0.791 % of the oral dose
[4]
  Fraction of the oral dose metabolized by hepatic CYP3A4 and CYP2C19: Approximately 70%
[5]; ALI rats (APAP 400 mg/kg ip)
  Ae0-24 h (drug excreted unchanged in urine for 24 h): 4.26 ± 2.87 % of dose
  GI24 h (drug remaining in the gastrointestinal tract at 24 h): 0.134 ± 0.0339 % of dose
[5]; ALI vs CON rats
  Increase in AUC: 207%
  Increase in terminal half-life: 113%
  Reduction in CL: 64.7%
  Reduction in CLNR: 66.1%
[5]; [16]
  Ae0-24 h (drug excreted unchanged in urine for 24 h): 9.25 ± 3.62 % of dose
  GI24 h (drug remaining in the gastrointestinal tract at 24 h): 0.115 ± 0.0493 % of dose
[5]; ALI-RVT vs ALI rats
  Increase in Ae0-24 h: 117%
  Increase in CL: 142%
  Increase in CLNR: 141%
  Increase in CLR: 398%
  Reduction in AUC: 62.0%
  Shorter terminal half-life: 38.0%
[5]; CON rats (control)
  Ae0-24 h (drug excreted unchanged in urine for 24 h): 5.30 ± 1.91 % of dose
  GI24 h (drug remaining in the gastrointestinal tract at 24 h): 0.108 ± 0.0444 % of dose
[5]; RVT rats (RVT 50 mg/kg ip)
  Ae0-24 h (drug excreted unchanged in urine for 24 h): 7.31 ± 3.12 % of dose
  GI24 h (drug remaining in the gastrointestinal tract at 24 h): 0.147 ± 0.00805 % of dose
[6]; ALI rats
  CLint lower than in CON rats: 69.6%
[6]; ALI-RVT rats
  CLint as % of CON values: 93.1%
[6]; CON, RVT, ALI, ALI-RVT
  Km values, comparison across all groups: remained consistent
[7]
  AUC: 4070 ng·h/mL
[8]; PBS in Nanosep 10 K centrifugal filter unit (no plasma), pH 7.4
  recovery at 30 min, 5 µg/mL: 99.7 ± 2.51%
[8]; plasma of ALI rats
  fraction unbound at 5 µg/mL: 0.358
[8]; plasma of CON rats
  fraction unbound at 5 µg/mL: 0.363
[8]; plasma of RVT rats
  fraction unbound at 5 µg/mL: 0.349
[9]
  Vmax, Km, and CLint, comparison across the four groups: no significant differences
